Assay results: US20080227809A1, “Arylalkylamine Vanadium (V) Salts for the Treatment and/or Prevention of Diabetes Mellitus” (GENMEDICA THERAPEUTICS SL, priority 2004, published 2008)

Legend:
[1] = test system: insulin receptor; assay: tyrosine phosphorylation of insulin receptor in isolated rat adipocytes; type: cell-based; conditions: 25 μM
Description: Isolated fat cells were disrupted for total membrane preparation by hypo-osmotic lysis in a 20 mM HES buffer and an antiprotease and antiphosphatase cocktail as reported by Abella et al. (2003, Diabetes 52: 1004-1013). Protein concentrations were determined by the Bradford method (Bradford, 1976, Anal. Biochem. 72: 248-254) with gamma-globulin as protein concentration standard. Immunoprecipitation and immunoblot assays were performed as previously described by Abella et al. (2004, Id.) with the use of a monoclonal antiphosphotyrosine antibody for the immunoprecipitation and an anti-insulin receptor antibody for immunobloting, respectively. SDS-polyacrylamide gel electrophoresis was performed on membrane proteins following conventional procedures. Proteins were transferred to Immobilon and immunoblotting was performed as reported by Castello et al. (1994, J. Biol. Chem. 269: 5905-5912).
The mechanism of action of B6V10 was investigated in isolated rat adipocytes. Adipose cells from Wistar rats were incubated for different times in the presence of 25 μM hexaquis(benzylammonium) decavanadate (B6V10). […] Subsequently, 2-deoxyglucose uptake (results shown in FIG. 7A), tyrosine phosphorylation of insulin receptor (FIG. 7B), phospho-Thr^308-protein kinase B (FIG. 7C) and phospho-Ser^473-protein kinase B (FIG. 7D) was measured. […]

[2] = in vivo

hypoglycemia [2]: did not cause hypoglycemia
Substance: hexaquis(benzylammonium) decavanadate [Example B6V10]
tyrosine phosphorylation of insulin receptors [1]: undetectable
toxicological side effects [2]: did not show toxicological side effects
